# Assays:
# [1] = Solubility tests by shaking suspensions and RP-HPLC analysis of supernatants; format: physicochemical; details: for solubility in aqueous medium: water or PBS, shaken overnight at room temperature, RP-HPLC of supernatants, theoretical concentration 1 mM
# Procedure: Due to water insolubility being a known issue for the ferrocidiphenol family, we exploited this strategy to attach substituents that could increase their solubility in a biologically relevant context. Thus, attaching short and monodisperse PEG chains seemed interesting. The tetraethylene glycol chain was readily grafted to A to afford 22 in 79% yield at room temperature in less than 3 h.
# Figure S50: Solubility studies by RP-HPLC analysis of compounds 18 (A), 20 (B) and […]
# A given amount of compounds 18, 20 and 22 was weighted and suspended in a given volume of tested solvent (DMSO, MeOH, PBS and H2O) to reach a theoretical concentration of 1 mM. Suspensions were sonicated for 1 min and shaken at R.T. for 18 h. The resulting solutions were filtrated (pore size 0.2 µm) and diluted to 100 µM in MeCN (for the solutions in organic solvents). HPLC analysis was performed on Nucleodur C18 column, (100 Å , 5 µm, 4.6 x 150 mm, Macherey-Nagel) using […]
# (also on this page, place not known: MeOH DMSO PBS – H2O A PBS MeOH DMSO PBS B H2O MeOH DMSO PBS – H2O C) […]
# MCF-7 = experiment: MTT cell viability assay on MCF-7 cells; format: cell-based; details: for EC50: 96-well plates, 4000 cells/well, viability after 3 days by MTT, mean ± SD of three independent experiments
# Procedure: (§1) A prerequisite to further bioorthogonal modifications is to preserve the biological properties of ferrociphenol compounds. Then, the impact of some of the grafted substituents on the antiproliferative activity was examined by a classical MTT cell viability assay on the two breast cancer cell lines MDA-MB-231 and MCF-7 as well as on the non-tumorigenic cell line hTERT-RPE1 (Table 3). The two cancer cell lines were chosen since most of the previously reported data on ferrocifens were carried out on these cellular models. The experimental protocol is described in Section 3.14., and it is important to emphasize here that the EC50 values reported in Table 3 are not to be compared to the IC50 values reported in the literature, since the assay conditions are different. For this reason, we included as a reference the ferrocenyl derivative of hydroxytamoxifen Fc-OH-TAM-3 [8] that is known to be cytotoxic to numerous cell lines. […] This feature was taken into account when performing data fitting.
# (§2) MDA-MB-231, MCF-7, and hTERT-RPE1 cells were obtained from ATCC. Cells were maintained in a monolayer culture in DMEM with phenol red with Glutamax I (MDA-MB-231) or 2 mM L-glutamine (MCF-7) or 15 mM HEPES (hTERT-RPE1) supplemented with 10% FBS at 37 °C in a humidified atmosphere and 5% CO2. Stock solutions of the complexes were prepared in DMSO. Cells were seeded in 96-well plates at a density of 4000 cells/well. After overnight attachment, a dilution series of the compounds were added in the medium, and cells were incubated for a further 72 h. […] Cell viability was evaluated by using a colorimetric method based on the tetrazolium salt MTT [3-(4,5-dimethylthiazol-2-yl)-2,5-diphenyltetrazolium bromide], which is reduced by viable cells to yield purple formazan crystals. After 72 h, the medium was removed and the cells were incubated with MTT solution in PBS (10 μL of a 5 mg/mL) for 2–3 h of incubation. The formed purple formazan crystals were dissolved in 100 μL DMSO by thorough shaking, and the absorbance at 560 nm was read using a microplate reader (FLUOstar OPTIMA, BMG Labtech, Ortenberg, Germany). Each test was performed with at least three replicates and repeated at least three times. EC50 were determined using Dr Fit software.
# MDA-MB-231 = experiment: MTT cell viability assay on MDA-MB-231 cells; format: cell-based; details: for EC50: 96-well plates, 4000 cells/well, viability after 3 days by MTT, mean ± SD of three independent experiments
# Procedure: as §1, §2
# HRP = target: T1, HRP (Armoracia rusticana, UniProt P00433); experiment: Enzymatic oxidation with HRP and H2O2; format: biochemical; details: fourfold molar excess of H2O2, HRP, pH 8.1; λmax 571–572 nm
# T1 construct: purchased
# T1 sequence (P00433 31-338 limits assumed): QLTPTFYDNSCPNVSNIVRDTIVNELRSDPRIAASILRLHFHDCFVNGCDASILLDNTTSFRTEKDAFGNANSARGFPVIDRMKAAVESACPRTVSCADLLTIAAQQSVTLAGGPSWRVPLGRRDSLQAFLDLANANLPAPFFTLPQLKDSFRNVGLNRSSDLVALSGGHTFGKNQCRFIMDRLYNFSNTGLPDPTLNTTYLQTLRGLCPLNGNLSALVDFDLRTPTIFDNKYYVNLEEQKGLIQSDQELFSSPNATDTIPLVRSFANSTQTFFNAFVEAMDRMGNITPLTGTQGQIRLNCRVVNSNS
# Procedure: Enzymatic oxidation of 19, 20, 22, 23, and 25 was performed with a fourfold molar excess of H2O2 in the presence of HRP at pH 8.1. […] This behavior is reminiscent of that previously observed for a structurally related diphenol complex, which lets us conclude that enzymatic oxidation of 19, 20, 22, 23, and 25 affords the corresponding quinone methide in the anionic phenolate form, regardless of the substituent grafted from the phthalimide ring.
# Figure S51. UV-vis spectra of compounds 19, 20, 22, 23 and 25 (50 µM) treated by HRP (46 nM) and H2O2 (200 µM) in 0.2 M TRIS buffer pH 8.1. Conversion to the phenolate form of the quinone methides is assessed by the appearance of the characteristic bands at ca. 570 and 360 nm. […]
# hTERT-RPE1 = experiment: MTT cell viability assay on non-tumorigenic hTERT-RPE1 cells; format: cell-based; details: for EC50: 96-well plates, 4000 cells/well, viability after 3 days by MTT, mean ± SD of three independent experiments; for toxicity on hTERT-RPE1 compared with MCF-7: comparison of EC50 values
# Procedure: as §1, §2
# [2] = system: NCI-60 panel of human cancer cells; parameters: method as in PMID 30977944; details: read-out: mean GI50 (half maximal growth inhibition); cited from earlier work
# [3] = system: triple negative breast cancer cell line MDA-MB-231; details: measured after 5 days of incubation (stated for B and C); cited from earlier work
# [4] = system: glioblastoma cell model U87; parameters: method as in PMID 26136201; details: cited from earlier work
EC50 (MCF-7) [µM],EC50 (MDA-MB-231) [µM],enzymatic oxidation to quinone methide (HRP),Molecule,solubility in aqueous medium [1],EC50 (hTERT-RPE1) [µM],toxicity on hTERT-RPE1 compared with MCF-7 (hTERT-RPE1),other results
,,,"O=C1c2ccccc2C(CCCCCCO)N1CCCC(=C(c1ccc(O)cc1)c1ccc(O)cc1)[c-]1cccc1.[Fe+2].c1cc[cH-]c1 (stereo not drawn) [Compound 21, 2,3-Dihydro-3-(6-hydroxyhexyl)-2-[4-ferrocenyl-5,5-bis-(4-hydroxyphenyl)-pent-4-enyl]-1H-isoindol-1-one]",,,,solubility in organic solvents [1]: improved the solubility in organic solvents including DCM
10.6 ± 0.3,6.3 ± 2.1,rapidly converted to bright pink adducts,"O=C1c2ccccc2C(CCO)N1CCCC(=C(c1ccc(O)cc1)c1ccc(O)cc1)[c-]1cccc1.[Fe+2].c1cc[cH-]c1 (stereo not drawn) [Compound 20, 2,3-Dihydro-3-(2-hydroxyethyl)-2-[4-ferrocenyl-5,5-bis-(4-hydroxyphenyl)-pent-4-enyl]-1H-isoindol-1-one]",none of these compounds were soluble in aqueous medium,5 ± 0.2,twice more toxic,"solubility in organic solvents [1]: poorly soluble in organic solvents, except for DMSO"
,,,O=C1CCC(=O)N1CCCC(=C(c1ccc(O)cc1)c1ccc(O)cc1)[c-]1cccc1.[Fe+2].c1cc[cH-]c1 [Compound B],,,,GI50 [2]: ~0.1 µM; IC50 [3]: 0.035 µM
29.9 ± 1.3,8.8 ± 2.5,rapidly converted to bright pink adducts,"O=C1c2ccccc2C(OCCOCCOCCOCCO)N1CCCC(=C(c1ccc(O)cc1)c1ccc(O)cc1)[c-]1cccc1.[Fe+2].c1cc[cH-]c1 (stereo not drawn) [Compound 22, O-{2,3-Dihydro-2-[4-ferrocenyl-5,5-bis-(4-hydroxyphenyl)-pent-4-enyl]-1H-isoindol-1-one-3-yl}-12-hydroxy-1,4,7,10-tetraoxadodecane]",none of these compounds were soluble in aqueous medium,24.7 ± 1.1,similar,
4.2 ± 0.7,2.4 ± 0.5,rapidly converted to bright pink adducts,"C#CCCCC1c2ccccc2C(=O)N1CCCC(=C(c1ccc(O)cc1)c1ccc(O)cc1)[c-]1cccc1.[Fe+2].c1cc[cH-]c1 (stereo not drawn) [Compound 23, 2,3-Dihydro-3-(pent-4-ynyl)-2-[4-ferrocenyl-5,5-bis-(4-hydroxyphenyl)-pent-4-enyl]-1H-isoindol-1-one]",,12.9 ± 3.3,,selectivity: less toxic on hTERT-RPE1 with respect to MCF-7 (hTERT-RPE1; ratio of EC50 values): 3 fold
4.7 ± 1.4,18 ± 0.4,rapidly converted to bright pink adducts,"2,3-Dihydro-3-(2-methoxycarbonylethylthio)-2-[4-ferrocenyl-5,5-bis-(4-hydroxyphenyl)-ent-4-enyl]-1H-isoindol-1-one [Compound 25]",,9.1 ± 0.4,twice more toxic,
,,,O=C1c2ccccc2C(=O)N1CCCC(=C(c1ccc(O)cc1)c1ccc(O)cc1)[c-]1cccc1.[Fe+2].c1cc[cH-]c1 [A],,,,IC50 [4]: 0.018 µM; IC50 [3]: 0.145 µM
,,,"O-{2,3-Dihydro-2-[4-ferrocenyl-5,5-bis-(4-hydroxyphenyl)-pent-4-enyl]-1H-isoindol-1-one-3-yl}-24-azido-1,4,7,10,13,16,19,22-octaoxatetracosane [Compound 24]",none of these compounds were soluble in aqueous medium,,,
,,,"COCCOCCOCCOCCOCCOCCOCCSC1c2ccccc2C(=O)N1CCCC(=C(c1ccc(O)cc1)c1ccc(O)cc1)[c-]1cccc1.[Fe+2].c1cc[cH-]c1 (stereo not drawn) [Compound 27, S-{2,3-Dihydro-2-[4-ferrocenyl-5,5-bis-(4-hydroxyphenyl)-pent-4-enyl]-1H-isoindol-1-one-3-yl}-1-thia-4,7,10,13,16,19,22-heptaoxatricosane]",none of these compounds were soluble in aqueous medium,,,
> 50,> 50,,"O=C1c2ccccc2C(=O)N1CCCC[c-]1cccc1.[Fe+2].c1cc[cH-]c1 [Compound 3h, N-(4-ferrocenylbutyl) Phthalimide]",,> 50,,"inhibition of cell growth, MCF-7 (MCF-7; MTT, 72 h): did not inhibit cell growth; inhibition of cell growth, MDA-MB-231 (MDA-MB-231; MTT, 72 h): did not inhibit cell growth; inhibition of cell growth, hTERT-RPE1 (hTERT-RPE1; MTT, 72 h): did not inhibit cell growth"

# Reference: publication PMC9324693, “α-Hydroxylactams as Efficient Entries to Diversely Functionalized Ferrociphenols: Synthesis and Antiproliferative Activity Studies” (Molecules, 2022)
